System: COX-2
Assay: COX-2 promoter reporter gene (luciferase) assay, COX-2 induced with TPA, cells transfected with TRPV1 of human
Type: cell-based
Settings: Maillard peptides 0.1% and 0.2%
Protocol: In order to measure COX-2 activity inhibition effect of Maillard peptides of the present invention, the following experiment was performed.
[…] cells were cultivated in the growth medium (DMEM, 10% calf serum, 100 units/ml penicillin, 100 μg/ml streptomycin) at 37° C., atmosphere: air 95% (v/v), carbon dioxide, 5% to generate cells growing exponentially; the medium was removed, washed with PBS, and treated with trypsin to separate the cultivated cells; and the separated cells were placed in the medium containing serum to inactivate trypsin. Centrifugal filtration was performed at 200/g for 2 min to obtain cell pellets. […] The transformed plasmid cells were washed with PBS, and dissolution buffer (125 mM Tris pH 7.8, 10 mM CDTA, 10 mM DTT, 50% glycerol, 5% triton X-100) was added to destroy the cells and obtain supernatant liquid, and the amount (concentration) of protein was quantified with Bradford assay. Luciferase activity was measured by adding 100 μl of buffer(20 mM trysin, 1.07 mM (MgCO3)4Mg(OH)2H20, 2.67 mM MgSO4, 0.1 mM EDTA, 33.3 mM DTT, 270 μM coenzyme A(Lithium salt), 470 μM luciferin, 530 μM ATP) and measuring light emission with Luminometer (LUMAT LB 9501/16) for 20 min. […]

Question: With `C=C(C)[C@]12C[C@@H](C)[C@@]34O[C@](Cc5ccccc5)(O[C@@H]1[C@@H]3C=C(COC(=O)Cc1ccc(O)c(OC)c1)C[C@]1(O)C(=O)C(C)=C[C@@H]41)O2` [resiniferatoxin] as the compound, how does the “COX-2 activity induced by TPA” value read?
Answer: decreased

From patent publication US8653032B2, “Pharmaceutical composition for preventing / treating TRPV1 activity-related and inflammation-related diseases or conditions containing maillard peptide separated from well-aged traditional soy sauce as active ingredient” (Korea Food Research Institute, priority 2009, dated 2014)
